Results on two compounds are retold here after patent US11965810B2, “Multiplexed on-chip impedance cytometry system and method” (UNIVERSITY OF VIRGINIA PATENT FOUNDATION, priority 2018, dated 2024).

“Also recorded” adds a separate entry of the source.

Assay [1] concerns cells (cell cycle phase). The experiment in a line: Cell cycle phase assessment by impedance cytometry (ϕZ contrast) after CPT treatment. In kind it is cell-based. Conditions: FIG. 16. The source says: FIG. 16 illustrates that the exemplary impedance contrast method and system can be used to detect lineage of cells based on differences of phases of cell cycle in accordance with an illustrative embodiment. That is, differences in electrophysiology between cells in G1 phase versus those with S and G2 phase can be detected using the phase contrast metric that is sensitive to interior conductivity, which can be an indicator of nucleus size (i.e., cell cycle phase/stage).
In FIG. 16, it can be observed that increasing the proportion of cells in the G2 phase increases the proportion of cells in the high impedance phase contrast (ϕZ contrast) region between 5 nM and 10 nM CPT treatment, whereas lowering the proportion of cells in G2 phase by […] CPT treatment lowers the proportion of cells in the high impedance phase contrast (ϕZ contrast) region.
(§1) FIGS. 16A, 16D, 16G, and 16J, corresponding to subpanel (a), (d), (g), and (j) are from flow cytometry, while the analogous impedance cytometry plots are in FIGS. 16B, 16C, 16E, 16F, 16H, 16I, 16K, and 16L (corresponding to subpanel (b) and (c), (e) and (f), (h) and (i), and (k) and (l)), respectively.
(§2) As per FIG. 16, indeed, CPT treatment at 5 nM and 10 nM levels increases the proportion of the sum of S and G2 phase cells, which can be detected based on the proportion of cells in the high impedance phase contrast (ϕZ contrast) region.

For assay [2], the system named is cells (cell cycle phase). As to the kind of experiment: Cell cycle phase analysis by flow cytometry after CPT treatment. Particulars: FIG. 16. In kind it is cell-based.
Text: Quantifying the proportion of cells in each phase of a cell cycle, including mitotic phases is widely carried out by flow cytometry using a stoichiometric fluorescent stain for DNA that reports the cells' position within the G1, S and G2 phases of the cell cycle. However, these stains are not compatible with live cell analysis.
as §1, §2
(In general: A flow cytometer gives signals particle by particle.)

The subject of assay [3] is PDXs of 608. Conditions: PDX 608; cited from earlier work.
Assay [4] has as its system PDXs of mPanc. The experiment in a line: Impedance phase contrast assessment of drug sensitivity, Gemcitabine-treated PDXs of mPanc. In kind it is cell-based, human. Particulars: standard 2D cell culture plate, over all five days, FIG. 15B. The source says:
(§3) In this context, since alterations in subcellular electrophysiology in response to drug-induced apoptosis or autophagy occur earlier in the cell cycle than apparent with staining-based or imaging approaches, the exemplary method and system in using electrophysiology for kinetic monitoring may be used to track differences in stochastic cell sensitivity to various drugs. Additionally, the exemplary electrophysiology method and system require no sample preparation steps for staining or image contrast enhancement, thereby preserving the state of fragile apoptotic cells. […] As a non-limiting example, sensitivity of the electrophysiology of patient-derived pancreatic tumor xenografts (PDXs) to the chemotherapy drug gemcitabine may be used to illustrate the assay. Currently, treatment with folfirinox drug combination is the preferred first-line therapy for pancreatic cancer, but a significant fraction of patients cannot tolerate the overall drug cytotoxicity. […] On the other hand, for Control (untreated) versus Gemcitabine-treated PDXs of mPanc (FIG. 15B), the alterations are only modest over all five days. Indeed, the drug sensitivity determination based on tumor size takes 5 days.

The subject of assay [5] is PDXs of mPanc. Particulars: PDX mPanc; cited from earlier work.
Assay [6] has as its system PDXs of 608. The experiment in a line: Impedance phase contrast assessment of drug sensitivity, Gemcitabine-treated PDXs of 608. In kind it is cell-based, human. Conditions: standard 2D cell culture plate, right from Day 1, more clearly Day 2-5, FIG. 15A.
Text: as §3

`CC[C@@]1(O)C(=O)OCc2c1cc1n(c2=O)Cc2cc3ccccc3nc2-1` [CPT]: the “proportion of cells in the high impedance phase contrast (ϕZ contrast) region” value was “lowers; also recorded: substantive decrease” in the assay with cells (cell cycle phase) [1] (CPT treatment at 100 nM); “increases” in the assay with cells (cell cycle phase) [1] (between 5 nM and 10 nM CPT treatment). Moreover, the “proportion of the sum of S and G2 phase cells” value in the assay with cells (cell cycle phase) [2] (CPT treatment at 5 nM) and with cells (cell cycle phase) [2] (CPT treatment at 10 nM) was “increases” throughout. Also, the “proportion of cells in S phase” value in the assay with cells (cell cycle phase) [2] (CPT treatment at 100 nM) is “increasing”. Moreover, the “proportion of cells in the G2 phase” value with cells (cell cycle phase) [2] (CPT treatment at 100 nM) is “lowering; also recorded: lowers”.

`Nc1ccn([C@@H]2O[C@H](CO)[C@@H](O)C2(F)F)c(=O)n1` [Gemcitabine, gemcitabine]: the results for the “known sensitivity to gemcitabine” value with PDXs of 608 [3] and in the assay on PDXs of mPanc [5] were “sensitive” and “relatively more resistant”, respectively. In addition, the entries for the “impedance phase contrast, Control (untreated) versus Gemcitabine-treated” value in the assay with PDXs of mPanc [4] and in the assay on PDXs of 608 [6] were “only modest” and “statistically significant differences”, respectively.
